# Patent US6215002A, “Pyrrolopyrrolone derivatives as inhibitors of neutrophil elastase” (priority 1996, dated 2001)
# Where a name gives a salt, the structure may show the parent alone.
# Key:
# [1] = target: T1, human neutrophil elastase (Homo sapiens, UniProt P08246); test: In vitro assay of human neutrophil elastase (HNE); assay type: biochemical; settings: 118 nM purified human neutrophil elastase, pH 8.6, 15 min incubation at 30° C., MeO-succinyl-alanyl-alanyl-prolyl-valyl-p-nitroanilide substrate; read-out: HNE IC50
# T1 sequence (P08246 30-267): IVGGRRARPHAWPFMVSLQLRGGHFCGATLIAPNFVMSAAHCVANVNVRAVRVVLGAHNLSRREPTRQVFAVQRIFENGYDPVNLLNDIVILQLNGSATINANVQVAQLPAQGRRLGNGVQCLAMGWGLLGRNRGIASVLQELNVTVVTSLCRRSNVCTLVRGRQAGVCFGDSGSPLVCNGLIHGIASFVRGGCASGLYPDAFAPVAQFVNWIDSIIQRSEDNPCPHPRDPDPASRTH
# Method in brief: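 Residual activity was taken as the 10 min rate of absorbance rise at 405 nm after adding 0.6 mM MeO-succinyl-AAPV-p-nitroanilide. Curve fitting of activity against concentration gave IC50.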
# Intracellular elastase = test: Oral in vivo model using IL-8 induced lung infiltrates for the assessment of intracellular elastase inhibition (hamster test); settings: effective dose of less than 40 mg/kg, IL-8 intratracheal
# Procedure: An Oral in vivo Model Using IL-8 Induced Lung Infiltrates For the Assessment of Intracellular Elastase Inhibition
# Adult hamsters (100-150 g) are randomised into groups (n=4) and fasted overnight. Under gaseous anaesthetic (3% isofluorane) animals are dosed orally with 1 mL/100 g water as vehicle or containing predissolved compounds. Either at the same time, or subsequently under anaesthetic, animals are dosed intratracheally with 1 ug recombinant human IL-8 in 100 uL sterile saline. Six hours after IL-8 dosing animals are sacrificed using intrapertoneal pentobarbitone. The lungs are ravaged with 2×2.5 mL sterile saline and femurs are removed by dissection.
# Intracellular elastase is prepared from neutrophils collected by lavage and from femoral bone marrow. This is achieved by sonication of the neutrophils and centrifugation to yield intracellular granules. These are disrupted by freeze/thawing and sonication. Elastase and myeloperoxidase assays are then performed on these samples to assess the efficacy of the compounds and to normalise for neutrophil recovery.
Compound,IC50 [1] [nM],duration of effect (Intracellular elastase)
"CC(C)[C@H]1C(=O)N(S(C)(=O)=O)[C@H]2CCN(C(=O)c3ccco3)[C@H]12 (relative stereo) [Example 248, rel-(3R,3aR,6aS)-4-(Furan-2-carbonyl)-3-isopropyl-1-methanesulfonyl-hexahydro-pyrrolo[3,2-b]pyrrol-2-one]",60,at least 6 hours
"CC(C)[C@H]1C(=O)N(S(C)(=O)=O)[C@H]2CCN(C(=O)c3ccc(CN4C(C)CCC4C)cc3)[C@H]12.Cl (relative stereo) [Example 186, rel-(3R,3aR,6aS)-4-[4-(2,5-Dimethyl-pyrrolidin-1-ylmethyl)-benzoyl]-3-isopropyl-1-methanesulfonyl-hexahydro-pyrrolo[3,2-b]pyrrol-2-one hydrochloride]",53,at least 6 hours
"CC(C)[C@H]1C(=O)N(S(C)(=O)=O)[C@H]2CCN(C(=O)/C=C/c3ccc(CN(C)C)cc3)[C@H]12 (relative stereo) [Example 159, hydrochloride]",17,at least 6 hours
"CC(C)[C@H]1C(=O)N(S(C)(=O)=O)[C@H]2CCN(C(=O)c3ccc(CN(C)C)o3)[C@H]12.Cl (relative stereo) [Example 251, rel-(3R,3aR,6aS)-4-(5-Dimethylaminomethyl-furan-2-carbonyl)-3-isopropyl-1-methanesulfonyl-hexahydro-pyrrolo[3,2-b]pyrrol-2-one hydrochloride]",43,at least 6 hours
"CC(C)[C@H]1C(=O)N(S(C)(=O)=O)[C@H]2CCN(C(=O)/C=C/CNC3CC3)[C@H]12.Cl (relative stereo) [Example 137, rel-(3R,3aR,6aS)-4-(4-Cyclopropylamino-but-2E-enoyl)-3-isopropyl-1-methanesulfonyl-hexahydro-pyrrolo[3,2-b]pyrrol-2-one hydrochloride]",45,at least 6 hours
"CC(C)[C@H]1C(=O)N(S(C)(=O)=O)[C@H]2CCN(C(=O)c3ccc(CN4CCCC4)cc3)[C@H]12.Cl (relative stereo) [Example 173, rel-(3R,3aR,6aS)-3-Isopropyl-1-methanesulfonyl-4-(4-pyrrolidin-1-ylmethyl-benzoyl)-hexahydro-pyrrolo[3,2-b]pyrrol-2-one hydrochloride]",65,at least 6 hours
"CC(=O)N1CCN(C/C=C/C(=O)N2CC[C@H]3[C@H]2[C@@H](C(C)C)C(=O)N3S(C)(=O)=O)CC1.Cl (relative stereo) [Example 138, rel-(3R,3aR,6aS)-4-[4-(4-Acetyl-piperazin-1-yl)-but-2E-enoyl]-3-isopropyl-1-methanesulfonyl-hexahydro-pyrrolo[3,2-b]pyrrol-2-one hydrochloride]",42,at least 6 hours
"CCN(CC)Cc1ccc(C(=O)N2CC[C@H]3[C@H]2[C@@H](C(C)C)C(=O)N3S(C)(=O)=O)cc1.Cl (relative stereo) [Example 182, rel-(3R,3aR,6aS)-4-(4-Diethylaminomethyl-benzoyl)-3-isopropyl-1-methanesulfonyl-hexahydro-pyrrolo[3,2-b]pyrrol-2-one hydrochloride]",43,at least 6 hours
"CC(C)[C@H]1C(=O)N(S(C)(=O)=O)[C@H]2CCN(C(=O)c3ccc(CN(C(C)C)C(C)C)cc3)[C@H]12 (relative stereo) [Example 201, rel-(3R,3aR,6aS)-4-{4-(Diisopropylamino)-methy]benzoyl}3-isopropyl-1-methanesulfonyl-hexahydro-pyrrolo[3,2-b]pyrrol-2-one hydrochloride]",46,at least 6 hours
"CCC[C@H]1C(=O)N(S(=O)(=O)c2ccc3ccccc3c2)[C@H]2CCN(C(=O)CCN3CCCCC3)[C@H]12 (relative stereo) [Example 2, rel-(3R,3aR,6aS)-1-(Naphthalene-2-sulfonyl)-4-(3-piperidin-1-yl-propionyl)-3-propyl-hexahydro-pyrrolo[3,2-b]pyrrol-2-one hydrochloride]",137,at least 6 hours
"CC(C)[C@H]1C(=O)N(S(C)(=O)=O)[C@H]2CCN(C(=O)c3cccc(CN(C)C)c3)[C@H]12 (relative stereo) [Example 253, rel-(3R3aR,6aS)-4-(3-Dimethylaminomethyl-benzoyl)-3-isopropyl-1-methanesulfonyl-hexahydro-pyrrolo[3,2-b]pyrrol-2-one hydrochloride]",76,at least 6 hours
"CC(C)[C@H]1C(=O)N(S(C)(=O)=O)[C@H]2CCN(C(=O)c3ccc(CNC4CC4)cc3)[C@H]12.Cl (relative stereo) [Example 180, rel-(3R,3aR,6aS)-4(4-Cyclopropylaminomethyl-benzoyl)-3-isopropyl-1-methanesulfonyl-hexahydro-pyrrolo[3,2-b]pyrrol-2-one hydrochloride]",42,at least 6 hours
"CC(C)[C@H]1C(=O)N(S(C)(=O)=O)[C@H]2CCN(C(=O)c3cccc(CN4CCC(C(N)=O)CC4)c3)[C@H]12.Cl (relative stereo) [Example 191, rel-1-[3-(6R-Isopropyl-4-methanesulfonyl-5-oxo-hexahydro-(3aS,6aR)-pyrrolo[3,2-b]pyrrole-1-carbonyl)-benzyl]-piperidine-4-carboxylic acid amide hydrochloride]",41,at least 6 hours
"CC(C)[C@H]1C(=O)N(S(C)(=O)=O)[C@H]2CCN(C(=O)c3ccc(CN4CCCCC4)cc3)[C@H]12.Cl (relative stereo) [Example 174, rel-(3R,3aR,6aS)-3-Isopropyl-1-methanesulfonyl-4-(4-piperidin-1-ylmethyl-benzoyl)-hexahydro-pyrrolo[3,2-b]pyrrol-2-one hydrochloride]",13,at least 6 hours
"CC(C)[C@H]1C(=O)N(S(C)(=O)=O)[C@H]2CCN(C(=O)c3ccc(CNC4CC4)o3)[C@H]12 (relative stereo) [Example 252, rel-(3R,3aR,6aS)-4-(5-Cyclolpropylaminomethyl-furan-2-carbonyl)-3-isopropyl-1-methanesulfonyl-hexahydro-pyrrolo[3,2-b]pyrrol-2-one hydrochloride]",14,at least 6 hours
"CC(C)[C@H]1C(=O)N(S(C)(=O)=O)[C@H]2CCN(C(=O)/C=C/CN3CCCCC3)[C@H]12.Cl [Example 155, (3R,3aR,6aS)-3-Isopropyl-1-methanesulfonyl-4-(4-piperidin-1-yl-but-2E-enoyl)-hexahydro-pyrrolo[3,2-b]pyrrol-2-one hydrochloride]",,at least 6 hours
"CC(C)[C@H]1C(=O)N(S(C)(=O)=O)[C@H]2CCN(C(=O)/C=C/CN3CCCCC3)[C@H]12.Cl (relative stereo) [Example 135, rel-(3R,3aR,6aS)-3-Isopropyl-1-methanesulfonyl-4-(4-piperidin-1-yl-but-2E-enoyl)-hexahydro-pyrrolo[3,2-b]pyrrol-2-one hydrochloride]",,at least 6 hours
